The values that follow come from patent US11266170B2, “Sweetener and flavor compositions, methods of making and methods of use thereof” (EPC Natural Products Co., Ltd., priority 2018, dated 2022).

Data set [1] has as its system 3 persons. The experiment in a line: Sensory analysis of odor/smell, color and taste of reacted samples (Examples 55-62). The format is in vivo. How it is done:
The reaction partners were dissolved in water and then warmed glycerin (60° C.) was added. […]
The taste test was performed as in Example 38.
All samples were assessed at 22° C. after the Maillard reaction was stopped by placing the sealed vials in an ice bath. After 20 minutes in the ice bath the sealed vials were put in a water bath set to 22° C.
The odor/smell was assessed independently by 3 persons; the final description was agreed after discussion. […] The taste was assessed independently by 3 persons either in the original samples or after appropriate dilution to achieve relevant concentrations of sugars and steviol-glycosides (i.e. 5-9% SE); the final description was agreed after discussion.

Data set [2] is described as follows: Kinetics of reaction of Phe with Reb-A, Gluc, Xyl, Suc in dependence of pH-conditions, HPLC/MS (Example 55). It is filed as physicochemical. How it is done: Quantitative evaluation was performed using external standardization.
Kinetics of Reaction in dependence of pH-conditions

Data set [3] has as its system panel of four people. The experiment in a line: Sensory test of Maillard reaction series in glycerol, buffer or dry conditions (Examples 50, 52). It is filed as in vivo. The settings on record: Table 52.2; 1 ml water + 9 ml Glycerin, 0.67 h, 100° C. (Table 50.2). How it is done:
The reaction partner (amino acid, carbohydrate source) were dissolved/suspended in the reaction solvent and transferred into a glass beaker filled with sand pre-heated for at least 30 minutes at the reaction temperature in a drying oven. After the planned reaction time, the vials were transferred into ice water. After cooling to room temperature, sensory analysis and analytical characterization was performed.
All tests were performed with negative controls (only reaction solvent, reaction solvent and amino acid, reaction solvent and carbohydrate).
Another series of experiments was performed in […] filled with 10 ml of reaction solvent. The reaction partner (amino acid, carbohydrate source) were dissolved/suspended in the reaction solvent and reflux heated for the time given on heating plates. After the planned reaction time, the flasks were transferred into ice water. After cooling to room temperature, sensory analysis and analytical characterization was performed.
Another series of experiments was performed in 20 ml sealed Pyrex vials. The reaction partner (amino acid, carbohydrate source) were finely grinded and mixed, then transferred in the Pyrex vial. A small volume of water was added and the reaction initiated in a drying oven. After the planned reaction time, the vials were transferred into ice water. After cooling to room temperature, sensory analysis and analytical characterization was performed.
For evaluation of the taste profile, the samples were tested by a panel of four people. 1 trained taster tasted independently the samples first. The taster was asked to describe the taste profile and score 0-5 according to the increasing sugar likeness, bitterness, aftertaste and lingering taste profiles. The first taster was allowed to re-taste, and then make notes for the sensory attributes perceived. Afterwards, another 3 tasters tasted and the attributes were noted and discussed openly to find a suitable description. In case that more than 1 taster disagreed with the results, the tasting was repeated. In some sensory test results (above), the taste rating was expressed by “+”, which means the intensity of the factors is shown by three levels. “+” for slight, “++” for moderate and “+++” for very strong.

For data set [4] the following is noted: cited from earlier work; for Sweetness by food energy / Sweetness by weight: compared to sucrose.
The mark [5] stands for this setting: Example 57, after reaction, 10 ml KH2PO4, pH 7.8, 2.5 h, 120 °C.
Setting [6] is: reaction of Phe and Gluc, pH = 5.5.
Setting [7] is: reaction of Phe and Gluc, pH = 7.0.
Setting [8] is: reaction of Phe and Gluc, pH = 8.5.
The mark [9] stands for this setting: reaction of Phe and Suc, pH = 5.5.
Setting [10] is: reaction of Phe and Suc, pH = 7.0.
The mark [11] stands for this setting: reaction of Phe and Suc, pH = 8.5.
Where [12] appears, read: negative controls (no carbohydrate source), 10 ml glycerin/water 9:1, 100 °C, 40 minutes.
Where [13] appears, read: reaction of Phe and Reb-A, pH = 5.5, Reb-B from degraded Reb-A, MRIs from degraded Phe.
Setting [14] is: reaction of Phe and Reb-A, pH = 7.0, Reb-B from degraded Reb-A, MRIs from degraded Phe.
The mark [15] stands for this setting: reaction of Phe and Reb-A, pH = 8.5, Reb-B from degraded Reb-A, MRIs from degraded Phe.
[16] abbreviates: Example 57, before reaction, 10 ml KH2PO4, pH 7.8.

Some results are limits rather than exact numbers.

For `OC[C@H]1OC(O)[C@H](O)[C@@H](O)[C@@H]1O` (stereo partly drawn) [Glu], the Smell entry in data set [1] (setting [5]) is listed as “Burnt sugar”. The Taste result in data set [1] (setting [5]) is “Sweet/bitter”. In addition, the “% degradation” value in data set [2] (setting [6]) was 3.65%; in data set [2] (setting [7]), 4.6%; in data set [2] (setting [8]), 7.62%.

In the case of `OC[C@H]1O[C@@](CO)(O[C@H]2O[C@H](CO)[C@@H](O)[C@H](O)[C@H]2O)[C@@H](O)[C@@H]1O` [Suc], the “% degradation” value in data set [2] (setting [9]) worked out at 3.67%; in data set [2] (setting [10]), 5.69%; in data set [2] (setting [11]), 9.81%.

As for `O=C(O)[C@H](Cc1ccccc1)NCC(=O)[C@@H](O)[C@H](O)[C@H](O)CO` [MRI (Phe-Glu)], the “% formation” value in data set [2] (reaction of Phe and Suc, pH = 5.5, from degraded Phe) is recorded as less than 0.10%; in data set [2] (reaction of Phe and Suc, pH = 7.0, from degraded Phe), 0.54%; in data set [2] (reaction of Phe and Suc, pH = 8.5, from degraded Phe), 0.84%.

As to `C[C@H](N)C(=O)O` [8.91 mg Ala], in data set [1] (setting [12]), the Smell entry is “Neutral, slightly Agar” and the Taste entry is recorded as “Slightly sweet”.

`NCCCC[C@H](N)C(=O)O` [14.7 mg Lys]: in data set [1] (setting [12]), the Smell result is recorded as “Popcorn” and the Taste result was “Slightly sweet”.

Turning to `O=C1O[C@@H]2[C@@H](O)[C@H](O)O[C@@H]2C1O` (stereo partly drawn) [Glucuronolactone], in data set [1] (setting [5]), the Smell entry is “Burnt sugar” and the Taste entry is listed as “Bitter”.

As for `C[C@H](N)C(=O)O` [0.1 mMol Ala], in data set [3], the Smell result is recorded as “Agar” and the Taste entry was “sweet”.

In the case of rebaudioside B [RB], the “% formation” value in data set [2] (setting [13]) is given as 23.1%; in data set [2] (setting [14]) it was 22.7%; in data set [2] (setting [15]) it was 19.1%.

In the case of `N[C@@H](Cc1c[nH]c2ccccc12)C(=O)O` [20.42 mg Try], in data set [1] (setting [12]), the Smell entry is recorded as “Unpleasant (fecal)” and the Taste entry is “Slightly sweet”.

`OC[C@H]1OC(O)[C@H](O)[C@@H](O)[C@@H]1O` (stereo partly drawn) [9 mg Glucose]: in data set [1] (setting [16]), the Smell entry is listed as “neutral” and the Taste result was “Sweet”.

Consider `CC[C@H](C)[C@H](N)C(=O)O` [13.11 mg Ile], for which, in data set [1] (setting [12]), the Smell result is “Coffee” and the Taste result is “Slightly sweet”.

For `O=C(O)[C@@H]1CCCN1` [11.5 mg Pro], in data set [1] (setting [12]), the Taste result is recorded as “Slightly sweet”.

`N[C@@H](Cc1ccccc1)C(=O)O` [16.5 mg Phe]: the Smell entry in data set [1] (setting [16]) is reported as “neutral”; in data set [1] (Example 58, after reaction, 10 ml KH2PO4, pH 7.8, 2.5 h, 120 °C) it was “Caramel, burnt”; in data set [1] (Example 58, before reaction, 10 ml KH2PO4, pH 7.8), “Neutral”; in data set [1] (setting [12]), “Bloomy, caramel”. Also, the Taste result was “No taste” in data set [1] (setting [16]); “Sweet” in data set [1] (Example 58, after reaction, after dilution 1:20); “No taste” in data set [1] (Example 58, before reaction, after dilution 1:20); “Slightly sweet” in data set [1] (setting [12]).

Turning to `CSCC[C@H](N)C(=O)O` [14.9 mg Met], in data set [1] (setting [12]), the Smell result is “Sulfuric” and the Taste entry is on record as “Slightly sweet”.

For `N[C@@H](CO)C(=O)O` [10.5 mg Ser], in data set [1] (setting [12]), the Smell entry is given as “Lotus flower” and the Taste entry was “Slightly sweet”.

Take `N[C@@H](CS)C(=O)O` [12.1 mg Cys]: in data set [1] (setting [12]), the Smell result is “Unpleasant (sulfur)” and the Taste entry was “Slightly sweet”.

With `NC(Cc1ccccc1)C(=O)O` (single isomer, unassigned) [Phe], the Smell result in data set [1] (setting [5]) was “Caramel, burnt”. Moreover, the Taste result in data set [1] (setting [5]) was “sweet”. The “% degradation” value in data set [2] (setting [6]) was found to be 2.26%; in data set [2] (setting [7]), 2.18%; in data set [2] (setting [8]), 4.24%; in data set [2] (reaction of Phe and Reb-A, pH = 5.5) it was 1.97%; in data set [2] (reaction of Phe and Reb-A, pH = 7.0), 9.07%; in data set [2] (reaction of Phe and Reb-A, pH = 8.5), 12.8%. The “% degradation” value in data set [2] (setting [9]) came out at 5.50%; in data set [2] (setting [10]), 5.19%; in data set [2] (setting [11]), 5.36%; in data set [2] (reaction of Phe and Xyl, pH = 5.5), 4.24%; in data set [2] (reaction of Phe and Xyl, pH = 7.0), 4.80%; in data set [2] (reaction of Phe and Xyl, pH = 8.5), 9.89%.

As to `OC[C@@H](O)[C@@H](O[C@@H]1O[C@H](CO)[C@H](O)[C@H](O)[C@H]1O)[C@H](O)[C@@H](O)CO` [Lactitol], in data set [4], the “Sweetness by food energy” value is reported as 0.8 and the Sweetness by weight is recorded as 0.4.

For Curculin, the Sweetness by weight in data set [4] was 430-2070.

Regarding `O=C[C@H](O)[C@@H](O)[C@H](O)[C@H](O)C(=O)O` [Glucuronic Acid], in data set [1] (setting [5]), the Smell result is reported as “burnt bread” and the Taste result was “Bitter”.

As for `CC1(C)[C@@H](O[C@H]2O[C@H](C(=O)O)[C@@H](O)[C@H](O)[C@H]2O[C@@H]2O[C@H](C(=O)O)[C@@H](O)[C@H](O)[C@H]2O)CC[C@]2(C)[C@H]3C(=O)C=C4[C@@H]5C[C@@](C)(C(=O)O)CC[C@]5(C)CC[C@@]4(C)[C@]3(C)CC[C@@H]12` [Glycyrrhizin], the Sweetness by weight in data set [4] was 30-50.

Turning to Isomalt, in data set [4], the “Sweetness by food energy” value is listed as 0.9-1.3 and the Sweetness by weight was 0.45-0.65.

Regarding Pentadin, the Sweetness by weight in data set [4] is reported as 500.

Take `C[C@@H](O)[C@H](N)C(=O)O` [11.91 mg Thr]: in data set [1] (setting [12]), the Smell result is given as “Vanilla, butter” and the Taste entry is on record as “Slightly sweet”.

Regarding `N[C@@H](Cc1ccc(O)cc1)C(=O)O` [18.1 mg Tyr], in data set [1] (setting [12]), the Smell entry is reported as “neutral” and the Taste entry was “Slightly sweet”.

With `C=C1CC23CC[C@H]4[C@@](C)(CCC[C@@]4(C)C(=O)OC4O[C@H](C(=O)N[C@H](Cc5ccccc5)C(=O)O)[C@@H](O)[C@H](O)[C@H]4O)[C@@H]2CC(O[C@@H]2O[C@H](CO)[C@@H](O)C(O[C@@H]4O[C@H](CO)[C@@H](O)[C@H](O)[C@H]4O)[C@H]2O[C@@H]2O[C@H](CO)[C@@H](O)[C@H](O)[C@H]2O)C1C3` (stereo partly drawn) [MRI (Phe-Reb-A)], the “% formation” value in data set [2] (setting [13]) amounted to 10.4%; in data set [2] (setting [14]), 11.3%; in data set [2] (setting [15]), 14.7%.

Turning to `C[C@H](CC[C@@H](O[C@@H]1O[C@H](CO)[C@@H](O)[C@H](O)[C@H]1O[C@@H]1O[C@H](CO)[C@@H](O)[C@H](O)[C@H]1O)C(C)(C)O)[C@H]1CC[C@@]2(C)[C@H]3CC=C4[C@@H](CC[C@H](O[C@@H]5O[C@H](CO[C@@H]6O[C@H](CO)[C@@H](O)[C@H](O)[C@H]6O)[C@@H](O)[C@H](O)[C@H]5O)C4(C)C)[C@]3(C)[C@H](O)C[C@]12C` [mogroside IV], in data set [4] (relative to sucrose / sugar, the sweetness depends on the tested concentration), the “times sweeter than sucrose” value was 126 times.

B1: Miraculin (protein, UniProt P13087 30-220, looked up)
Miraculin: DSAPNPVLDIDGEKLRTGTNYYIVPVLRDHGGGLTVSATTPNGTFVCPPRVVQTRKEVDHDRPLAFFPENPKEDVVRVSTDLNINFSAFMPCRWTSSTVWRLDKYDESTGQYFVTIGGVKGNPGPETISSWFKIEEFCGSGFYKLVFCPTVCGSCKVKCGDVGIYIDQKGRRRLALSDKPFAFEFNKTVYF
For the molecule B1, in data set [4] (result in words), the “Notes (taste)” value is recorded as “A protein that does not taste sweet by itself”.
